# Measurements reported in patent US7601501B2, “Controlling osteogenesis by inhibition of osteogenic suppressors” (The Scripps Research Institute, priority 2006, dated 2009).
# “Also recorded” adds a separate entry of the source. Strand notation (5' to 3'): a small letter for the sugar, then the base; units joined by * are phosphorothioate-linked, units joined directly phosphodiester-linked; [ ] holds rarer units or linkages, { } end groups; capitals alone tell only the bases. d = 2'-deoxy (DNA)
# Columns and labels:
# [1] = system: CREB; assay: CRE decoy transfection followed by osteogenic or adipogenic induction media; assay type: cell-based, human; conditions: 90 nM oligonucleotide, vs CRE mismatch control; for adipogenic differentiation after decoy transfection: adipogenic induction media
# Description: (§1) The human mesenchymal stem cells (hMSCs, PT-2501) were purchased from Cambrex Inc. and cultured as instructed by the supplier. Cells were expanded to passage 5 before being used for siRNA library screen. Briefly, diluted Xtreme-siRNA transfection reagent (cat# 4 476 115 00, Roche) (0.12 μl Xtreme in 14 μl DMEM) was mixed with pre-spotted siRNA (14 ng/well) in each well of 384-well plates for one hour. Cells (4000/well) in 60 μl media (no antibiotics) were then added using automated dispenser (Multidrop 384, Thermo LabSystems) (siRNA final concentration at around 15 nM). Transfection was allowed to continue for 8 hours before first media renewal. After 7 days of culture, cells were stained for alkaline phosphatase (ALP) activity (cat# 86R-1KT, Sigma). Post-screen assays were done in 96-well plates and siRNA was transfected at the concentration of 30 nM at the cell density of 8000 cells/well. CRE decoy oligonucleotide and control oligonucleotide (phosphorothioate bond modification on all nucleotides) (Park, Y. G. et al., J Biol Chem 274:1573-1580 (1999)) were transfected into cells similarly as siRNA using Xtreme-siRNA transfection reagent, except that the final DNA concentration was 90 nM. Control siRNA (siCon) used in the screen contains a pool of 50 scrambled sequences that have at least 4 mismatches to known human transcripts and ESTs, and at least 2-3 mismatches to the whole human genome. siCon used in target characterization after primary screen was purchased from Dharmacon (D-001210-01-05), which was bioinformatically designed to have >=4 mismatches with known human and mouse genes. siTOX was also purchased from Dharmacon (D-001500-01-05).
# To find out whether CREB (cAMP Responding Element Binding protein), a common downstream effector of cAMP signaling pathway, is involved in mediating cAMP signaling controlled differentiation of hMSCs, we checked the expression level of the active form of CREB proteins in cells 3 days after siP2RY11, siADK, siGNAS, siSLC12a2 or siCon transfection. […]
# [2] = system: human mesenchymal stem cells (hMSCs); assay: Oil Red O staining, adipogenic differentiation with adipogenic inducing media; assay type: cell-based
# Description: Cells were rinsed with PBS twice, fixed in 10% formalin solution for 20 minutes, rinsed with PBS twice and dH2O once, washed with propylene glycol for 5 minutes, and stained with Oil red in propylene glycol (I2722A, Newcomer Supply) for 30 minutes. Cells were then washed with 85% propylene glycol for 5 minutes, rinsed with dH2O 3 times and preserved in 50% glycerol.
# Bone cell maturation is accompanied by extracellular matrix (ECM) mineralization (John Bilezikian et al., Principles of bone biology, Vol 1, 2nd edn: Academic Press) (2002)). To examine whether the osteogenic differentiation of hMSCs induced by the hit siRNAs can further proceed to the maturation stage, hit siRNA treated cells were cultured for 20 days. […] These observations are consistent with the conclusion that the targeted genes of the ten effective hit siRNAs not only play inhibitory roles in osteogenic specification of hMSCs, but also in bone cell maturation. […] Furthermore, in osteoporotic patients, the number of adipocytes was increased in the marrow, implying a change of cell fate disposition from osteoblast lineage to adipocyte lineage (Justesen, J. et al., Biogerontology 2:165-171 (2001); Meunier, P. et al., Clin Orthop Relat Res 80:147-154 (1971)). […]
# [3] = system: human mesenchymal stem cells (hMSCs); assay: Compound treatment: OS-induced osteogenic differentiation of hMSCs (ALP / alizarin red staining); assay type: cell-based; conditions: compound combined with OS treatment; ALP and/or alizarin red staining
# Description: 8-CPT-cAMP, Na (cat# 116812), 5-Iodotubercidin (cat# 407900), Prostaglandin E2 (PGE2, cat# 538904), SB 202190 (cat# 559388) and U0126 (cat# 662005) were purchased from Calbiochem; N6,2′-O-Dibutyryl-cAMP (cat# D0260-5MG), forskolin (cat# F6886), ascorbic acid 2-phosphate (cat# 49752-10G), β-glycerophosphate (G-6251), dexamethasone (D8893), 3-isobutyl-1-methylxanthine (IBMX, I5879) and Insulin (I 9278) were purchased from Sigma/Aldrich/Fluka.
# Since the targeted genes are all positively involved in intracellular cAMP signaling, we tested the effect of two compounds of opposing function on cAMP production on osteogenic differentiation of hMSCs, ADK inhibitor 5-iodotubercidin and ADCY activator forskolin (Cottam, H. B. et al., J Med Chem 36:3424-3430 (1993); de Souza, N. J. et al., Med Res Rev 3:201-219 (1983)). […] ATP has been shown as a ligand for P2RY11 receptor (Communi et al., 1997). […] The present observations are consistent with the conclusion that […] in hMSCs, and vice versa.
# [4] = system: human mesenchymal stem cells (hMSCs); assay: Alizarin red staining for calcium phosphate deposits (ECM mineralization, bone cell maturation); assay type: cell-based; conditions: OS started three days after siRNA transfection and continued for 9 days
# Description: Cells were rinsed with PBS twice, stained in alizarin red solution (cat# vw3611-2, VWR) for 8 minutes at room temperature, washed with PBS again, fixed in 10% formalin solution (cat# HT-5014, Sigma) for 20 minutes, then rinsed with water and air dried.
# Bone cell maturation is accompanied by extracellular matrix (ECM) mineralization (John Bilezikian et al., Principles of bone biology, Vol 1, 2nd edn: Academic Press) (2002)). […] […] These observations are consistent with the conclusion that the targeted genes of the ten effective hit siRNAs not only play inhibitory roles in osteogenic specification of hMSCs, but also in bone cell maturation. […] Furthermore, in osteoporotic patients, the number of adipocytes was increased in the marrow, implying a change of cell fate disposition from osteoblast lineage to adipocyte lineage (Justesen, J. et al., Biogerontology 2:165-171 (2001); Meunier, P. et al., Clin Orthop Relat Res 80:147-154 (1971)). We therefore examined the effect of our hit siRNAs on adipogenic differentiation of hMSCs by combined treatment with an adipogenic inducing cocktail (100 μg/ml IBMX, 1 μM DEX and 10 μg/ml insulin).
# [5] = system: BMP-2, PLZF, TAZ; assay: RT-PCR of positive regulators of osteogenesis; assay type: cell-based, human; conditions: samples collected on day 7 or day 12 after siRNA transfection
# Description: Total RNA from each sample was prepared from around 5×10(4) cells using RNAeasy mini kit from Qiagen and further treated with Turbo DNA-Free (cat# 1907, Ambion) to prevent DNA contamination. Reverse transcription was carried out using SuperScript First-Strand Synthesis System for RT-PCR (cat# 11904-018, Invitrogen) or Qiagen OneStep RT-PCR kit (cat# 210210) as instructed. PCR primers used were as follows: […]
# To test their roles in our siRNA induced osteogenic differentiation, RT-PCR was performed on these genes. […] In addition, MAPK signaling pathways have been shown activated in the OS treated hMSCs, and inhibition of these pathways suppresses OS induced osteogenesis (FIG. 9b) (Jaiswal, R. K. et al., J Biol Chem 275:9645-9652 (2000)).
# [6] = system: human mesenchymal stem cells (hMSCs); assay: Alkaline phosphatase (ALP) activity staining of siRNA-transfected hMSCs (osteogenic differentiation screen); assay type: cell-based; conditions: for ALP activity induced by the hit siRNAs or OS, on co-transfection: co-transfected with each hit siRNA, compared to siCon co-transfection
# Description: as §1
# Fifty five hits that gave rise to a significant increase of ALP activity on day 7 after siRNA transfection in hMSCs were identified and confirmed (FIG. 2a & Table 1).
# [7] = system: ERK1/2 and p38; assay: Western blot of phosphorylated ERK1/2 and p38; assay type: cell-based, human; conditions: 72 hours after transfection
# Description: Cell lyses buffer contains 20 mM Tris pH8.0, 1 mM EDTA, 150 mM NaCl and 0.5% NP-40, and before usage, protease inhibitor cocktail (Cat# p8340, Sigma, 1:100 dilution) and phosphatase inhibitor cocktail 2 (Cat# p5726, sigma, 1:100 dilution) were added. Proteins (60 μg/well) were separated in 12% Novex Tris-Glycine gel (Cat# EC6008 box, Invitrogen) and transferred to Nitrocellulose membrane (Cat# LC2001, Invitrogen) using the XCell II blot module system (Cat# EI9051, Invitrogen). The membrane was blocked in 5% milk/PBST for 1 hour at room temperature, incubated over night at 4 degree with primary antibody, washed 3 times with PBST (0.05% Tween 20 in PBS), followed by one hour incubation with secondary antibody in 5% milk/PBST and 3 times wash with PBST at room temperature. For antibody against pCREB however, PBST was substituted with PBS in all steps except for the last one. Antibody-bound proteins were detected utilizing ECL Western blotting detection reagent (Amersham Biosciences).
# Anti-phospho-CREB was purchased from Upstate Biotechnology (cat# 06-519); Anti-phospho-p38 was purchased from Cell signaling technology (cat# 9910).
# We therefore examined the activation status of ERK1/2 and p38 in the siDUSP6 treated hMSCs along with other siRNA treated samples by western blot using antibodies against the phosphorylated form of the protein at 72 hours after transfection (FIG. 9c).
compound,measurement,setting,value
"5′-TGACGTCATGACGTCATGACGTCA-3′ (DNA dT*dG*dA*dC*dG*dT*dC*dA*dT*dG*dA*dC*dG*dT*dC*dA*dT*dG*dA*dC*dG*dT*dC*dA) [CRE decoy, synthetic 24-mer CRE decoy palindrome oligonucleotide, phosphorothioate bond modification on all nucleotides]",adipogenic differentiation after decoy transfection,[1],inhibited cells from undergoing adipogenic differentiation
same,adipogenic differentiation after decoy transfection,[1]; listed as CRE (CREB responding element) decoy,less responsive
same,osteogenic differentiation after decoy transfection,"[1]; osteogenic induction media (OS), listed as CRE (CREB responding element) decoy",less responsive
Nc1ncnc2c1c(I)cn2[C@@H]1O[C@H](CO)[C@@H](O)[C@H]1O [5-iodotubercidin],"adipogenic differentiation of hMSCs (oil red o staining), compound",[2]; adipogenic inducing media plus compound,inhibited the adipogenic differentiation of hMSCs in a dose dependent manner
same,osteogenic effect of the OS media on hMSCs,[3],significantly enhanced; also recorded: enhanced the osteogenic effect of the OS media
"CAGAUGCAUCGACCAAAAC (siRNA; listed as RNA, chemistry not fully specified) [siMJD, siRNA targeting Machado-Joseph disease (ataxin 3)]","intensity of alizarin red staining (bone cell maturation), 3+9OS",[4],no significant effect
same,expression of PLZF (RT-PCR),[5],detected; also recorded: induced
"CGGUCACGGAUGACGACUA (listed as RNA, chemistry not given here) [siCOMP, siRNA targeting cartilage oligomeric matrix protein]",adipogenesis induced by adipogenic inducing media (Oil Red O),"[2]; Adipo on the third day after siRNA transfection, continued for 12 days",enhances adipogenesis
same,osteogenic differentiation (alkaline phosphatase activity),[6]; 9 days after siRNA transfection,induces osteogenic differentiation
"CUGUGGUGUCUUGGUACAU (listed as RNA, chemistry not given here) [siDUSP6, siRNA targeting dual specificity phosphatase 6]","intensity of alizarin red staining (bone cell maturation), 3+9OS",[4],modest enhancement
same,phosphorylated (active) p38 level (Western blot),[7],increased level; also recorded: up regulated
"UAGUAGAGAUAUGGAGUGCtg (antisense); GCACUCCAUAUCUCUACUAtt (sense) (chain 1 UAGUAGAGAUAUGGAGUGCTG; chain 2 GCACUCCAUAUCUCUACUATT; chemistry not given here) [CBFA1 siRNA, CBFA 1-specific siRNA]","ALP activity induced by the hit siRNAs or OS, on co-transfection",[6],reduced the level of ALP activity
same,"ALP activity induced by the hit siRNAs or OS, on co-transfection",[6]; listed as siCbfa 1,reduced
